Data as given in US9359341B2, “Aldehyde derivative of substitute oxazolidinones” (WANBURY LTD., priority 2012, dated 2016).

How the values were obtained:
[1] = In vitro liver microsomal stability assay (rat); type: in vitro ADME; details: rat liver microsomes
Protocol: (§1) Liver microsomal stability assays are conducted at 1 mg per mL liver microsome protein with an NADPH in phosphate buffer (100 mM, pH 7.4). Test compounds (compound of formula B of the invention) are prepared as solutions in 20% methanol-water and added to the assay mixture (final assay concentration 1 μM) and incubated at 37° C. Aliquots (100.μ·L) are taken out at times 0, 15, and 30 minutes, and diluted with ice cold acetonitrile containing IS (200.mu·L) to stop the reactions. Samples are centrifuged at 10,000 RPM for 5 minutes to precipitate proteins. Supernatants are transferred to micro centrifuge tubes and stored at −20° C. for analysis of LC/MS/MS. The percent parent remaining of the test substance is calculated as Ratio of peak area at each time point to peak area ratio at zero min, multiplied by 100. The compound formula (B) is converted to Rivaroxaban in microsomal assay.

CYP2D6 = CYP2D6 (Homo sapiens (Human), UniProt P10635); experiment: CYP inhibition assay; type: in vitro ADME; details: pooled human liver microsomes; extrapolated IC50 derived from 3 μM; read-out: IC50 (μM) of CYP isoforms, 2D6
Sequence of CYP2D6 (P10635 whole entry, canonical isoform): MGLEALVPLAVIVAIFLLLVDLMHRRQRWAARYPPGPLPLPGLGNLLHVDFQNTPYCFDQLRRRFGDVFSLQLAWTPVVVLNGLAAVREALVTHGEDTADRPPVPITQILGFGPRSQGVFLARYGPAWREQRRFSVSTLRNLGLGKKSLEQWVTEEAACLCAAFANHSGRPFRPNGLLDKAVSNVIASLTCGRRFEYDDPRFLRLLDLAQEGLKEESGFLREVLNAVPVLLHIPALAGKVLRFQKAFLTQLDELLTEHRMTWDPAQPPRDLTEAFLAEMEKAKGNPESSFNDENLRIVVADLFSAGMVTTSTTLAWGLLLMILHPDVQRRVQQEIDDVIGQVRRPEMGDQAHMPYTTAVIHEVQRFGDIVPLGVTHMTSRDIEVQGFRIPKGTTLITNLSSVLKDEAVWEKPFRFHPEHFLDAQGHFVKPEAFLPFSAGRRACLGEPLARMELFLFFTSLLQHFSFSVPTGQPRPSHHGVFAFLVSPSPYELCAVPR
Protocol: (§2) The ability of substances to inhibit CYP1A2, CYP2C9, CYP2D6, CYP2C19, CYP2J2 and CYP3A4 in humans was investigated with pooled human liver microsomes as enzyme source in the presence of standard substrates (see below) which form CYP-isoform-specific metabolites.
(§3) Standard incubation mixtures comprise NADPH and substrates in 100 mM phosphate buffer (pH 7.4) in a total volume of 200 μl. Test compound are dissolved in acetonitrile. Incubated with pooled human liver microsomes at 37° C. for a defined time. The reactions are stopped by adding 100 μl of acetonitrile in which a suitable internal standard is always present. Precipitated proteins are removed by centrifugation, and the supernatants analyzed by LC-MS/MS. The data represents the extrapolated IC50 (μM) concentration derived from 3 μM.

CYP2C19 = CYP2C19 (Homo sapiens (Human), UniProt P33261); experiment: CYP inhibition assay; type: in vitro ADME; details: pooled human liver microsomes; extrapolated IC50 derived from 3 μM; read-out: IC50 (μM) of CYP isoforms, 2C19
Sequence of CYP2C19 (P33261 whole entry, canonical isoform): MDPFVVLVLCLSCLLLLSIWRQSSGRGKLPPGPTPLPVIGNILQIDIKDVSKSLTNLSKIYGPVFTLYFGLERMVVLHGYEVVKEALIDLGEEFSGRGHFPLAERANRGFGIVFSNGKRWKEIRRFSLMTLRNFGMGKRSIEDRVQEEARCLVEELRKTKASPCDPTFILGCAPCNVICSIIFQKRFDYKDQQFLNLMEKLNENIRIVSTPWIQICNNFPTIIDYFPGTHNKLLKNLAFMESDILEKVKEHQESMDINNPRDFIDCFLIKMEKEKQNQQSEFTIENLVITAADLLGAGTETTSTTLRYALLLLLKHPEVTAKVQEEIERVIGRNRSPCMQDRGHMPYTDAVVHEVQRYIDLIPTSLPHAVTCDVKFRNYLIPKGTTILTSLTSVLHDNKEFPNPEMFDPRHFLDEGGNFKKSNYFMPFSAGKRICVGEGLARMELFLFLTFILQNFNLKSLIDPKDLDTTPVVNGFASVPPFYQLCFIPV
Protocol: as §2, §3

CYP2J2 = CYP2J2 (Homo sapiens (Human), UniProt P51589); experiment: CYP inhibition assay; type: in vitro ADME; details: pooled human liver microsomes; extrapolated IC50 derived from 3 μM
Sequence of CYP2J2 (P51589 whole entry): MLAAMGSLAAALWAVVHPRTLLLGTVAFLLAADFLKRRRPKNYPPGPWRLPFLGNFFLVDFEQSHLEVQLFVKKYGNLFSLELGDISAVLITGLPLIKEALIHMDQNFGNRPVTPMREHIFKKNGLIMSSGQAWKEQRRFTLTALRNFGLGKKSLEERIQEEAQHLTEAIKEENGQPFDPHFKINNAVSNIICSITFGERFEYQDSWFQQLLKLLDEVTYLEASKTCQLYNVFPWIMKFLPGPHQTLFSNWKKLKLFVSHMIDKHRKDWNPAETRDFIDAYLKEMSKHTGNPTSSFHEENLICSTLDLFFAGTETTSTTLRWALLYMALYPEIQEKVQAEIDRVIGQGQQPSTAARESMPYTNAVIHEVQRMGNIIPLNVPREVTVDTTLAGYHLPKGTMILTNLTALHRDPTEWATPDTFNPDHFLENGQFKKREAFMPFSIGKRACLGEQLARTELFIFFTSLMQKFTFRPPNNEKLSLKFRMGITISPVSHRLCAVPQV
Protocol: as §2, §3

CYP2C9 = CYP2C9 (Homo sapiens (Human), UniProt P11712); experiment: CYP inhibition assay; type: in vitro ADME; details: pooled human liver microsomes; extrapolated IC50 derived from 3 μM; read-out: IC50 (μM) of CYP isoforms, 2C9
Sequence of CYP2C9 (P11712 whole entry, canonical isoform): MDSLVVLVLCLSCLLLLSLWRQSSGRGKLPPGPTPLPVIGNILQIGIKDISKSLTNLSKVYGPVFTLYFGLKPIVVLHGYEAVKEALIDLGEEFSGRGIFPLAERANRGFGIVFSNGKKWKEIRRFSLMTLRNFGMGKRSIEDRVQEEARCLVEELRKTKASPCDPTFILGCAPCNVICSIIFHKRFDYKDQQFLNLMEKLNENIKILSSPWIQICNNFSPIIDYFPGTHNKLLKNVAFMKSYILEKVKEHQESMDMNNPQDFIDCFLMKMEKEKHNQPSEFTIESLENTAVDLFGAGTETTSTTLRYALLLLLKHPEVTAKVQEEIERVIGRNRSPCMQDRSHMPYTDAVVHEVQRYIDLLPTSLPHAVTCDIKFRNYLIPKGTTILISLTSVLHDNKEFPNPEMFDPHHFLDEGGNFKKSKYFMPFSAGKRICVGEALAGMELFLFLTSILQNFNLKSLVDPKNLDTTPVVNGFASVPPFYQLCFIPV
Protocol: as §2, §3

[2] = In vitro liver microsomal stability assay (mouse); type: in vitro ADME; details: mouse liver microsomes
Protocol: as §1

[3] = In vitro stability in rat plasma; type: in vitro ADME
Protocol: (§4) The final concentration of the test compound in the assay is 5 micromolar. […] C. The 100 microliters of aliquot at time point was removed and diluted with ice cold acetonitrile containing IS (200.mu·L) to stop the reactions. Samples are centrifuged at 10,000 RPM for 5 minutes to precipitate proteins. Supernatants are transferred to micro centrifuge tubes and stored at −20° C. for analysis of LC/MS/MS. The percent parent remaining of the test substance is calculated as ratio of peak area at each time point to peak area ratio at zero min, multiplied by 100.
(§5) API 4000, ESI Agilent 1100 column: Gemini Nx 100 mm×4.6 mm 5.1; column temperature: 30° C.; eluent A: 0.1% formic acid in water, eluent B: acetonitrile; gradient: 0-2.5 min 95% A, 5% B; 2.5-2.6 min 5% A, 95% B; 2.6-4.2 min 95% A, 5% B; flow rate: 0.8 ml/min; ESI. Q1:464.098, Q3:144.255

[4] = Intravenous and oral excretion profile in Wistar rats; type: in vivo; details: for Mean (ng) Urine: IV 1 mg/Kg, rivaroxaban in urine
Protocol: On the day before administration of the substance, a catheter for obtaining blood is implanted in the jugular vein of the experimental animals (male Wistar rats, body weight 200-250 g) under Isoflurane. anesthesia.
Urine and faeces are taken collected from metabolic cages over the course of 144 h after administration of the substance. The administration volume is 10 ml/kg for oral and 1 ml/kg for IV in male Wistar rats. Intravenous administration is via a formulation of 2% N—N Dimethyl acetamide/ethanol 10%/PEG400 (30%)/water for IV injection (58%) and via Tween80/PEG400/sterile water in the case of oral administration. Urine and faeces collection is 0-4, 4-8, 8-24, 24-48, 48-72, 72-96, 96-120, 120-144 in the case of IV and for oral administration.
Urine and faeces was processed and IS containing Acetonitrile is added to a defined urine/faeces and precipitated. After centrifugation, compound formula (B) and, where appropriate, known cleavage products of the compound formula (B) in the supernatant are determined quantitatively using a suitable LC/MS-MS method.
The measured urine and faeces concentrations are used to calculate parameters of the test substance and of the active ingredient compound (A) liberated there from, such as AUC and Cmax.
Acetonitrile containing IS is added to the study samples, calibration samples and QCs, and the protein is precipitated using acetonitrile. Vortexed and centrifuged and the supernatant is injected by LC-MS/MS (API 4000, AB Sciex). Chromatographic separation is carried out on an Shimadzu UFLC. The injection volume is 10 μl. The separation column used is a Phenomenex Gemini NX 4.6×5μ. 100 mm, adjusted to a temperature of 30° C. A binary mobile phase gradient at 800.mu·l/min is used (A: 0.1% formic acid in water, B: acetonitrile: API 4000, ESI Agilent 1100 column: Gemini Nx 100 mm×4.6 mm 5.μ; column temperature: 30° C.; eluent A: 0.1% formic acid in water, eluent B: acetonitrile; gradient: 0-2.5 min 95% A, 5% B; 2.5-2.6 min 5% A, 95% B; 2.6-4.2 min 95% A, 5% B; flow rate: 0.8 ml/min; ESI. Q1:464.098, Q3:144.255 The temperature of the Turbo V ion source is 500° C. The following MS instrument parameters are used: curtain gas 20 units, ion spray voltage 5 kV, gas 1 50 units gas 2 50 units, CAD gas 6 units. The substances are quantified by peak heights or areas using extracted ion chromatograms of specific MRM experiments.

CYP1A2 = CYP1A2 (Homo sapiens (Human), UniProt P05177); experiment: CYP inhibition assay; type: in vitro ADME; details: pooled human liver microsomes; extrapolated IC50 derived from 3 μM; read-out: IC50 (μM) of CYP isoforms, 1A2
Sequence of CYP1A2 (P05177 whole entry, canonical isoform): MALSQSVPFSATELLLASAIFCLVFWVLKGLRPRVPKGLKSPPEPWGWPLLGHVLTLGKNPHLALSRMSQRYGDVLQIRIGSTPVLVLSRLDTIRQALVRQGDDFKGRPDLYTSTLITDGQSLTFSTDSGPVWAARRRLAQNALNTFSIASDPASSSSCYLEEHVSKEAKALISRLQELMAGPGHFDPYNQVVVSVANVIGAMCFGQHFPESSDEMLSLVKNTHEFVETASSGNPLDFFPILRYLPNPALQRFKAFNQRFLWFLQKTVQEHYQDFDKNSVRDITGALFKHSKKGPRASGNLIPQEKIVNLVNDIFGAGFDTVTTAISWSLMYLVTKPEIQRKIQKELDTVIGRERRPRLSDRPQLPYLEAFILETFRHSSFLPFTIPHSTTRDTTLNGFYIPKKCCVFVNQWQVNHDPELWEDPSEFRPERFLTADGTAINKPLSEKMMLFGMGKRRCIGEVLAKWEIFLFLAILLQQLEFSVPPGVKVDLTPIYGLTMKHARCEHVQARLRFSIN
Protocol: as §2
Standard incubation mixtures comprise NADPH and substrates in 100 mM phosphate buffer (pH 7.4) in a total volume of 200 μl. Test compound are dissolved in acetonitrile. Incubated with pooled human liver microsomes at 37° C. for a defined time. The reactions are stopped by adding 100 μl of acetonitrile in which a suitable internal standard is always present. Precipitated proteins are removed by centrifugation, and the supernatants analyzed by LC-MS/MS.

[5] = In vitro stability in human plasma; type: in vitro ADME
Protocol: as §4, §5

[6] = In vitro liver microsomal stability assay (human); type: in vitro ADME; details: human liver microsomes
Protocol: as §1

[7] = In vitro stability in mouse plasma; type: in vitro ADME
Protocol: as §4, §5

With O=C(NC[C@H]1CN(c2ccc(N3CCOCC3=O)cc2)C(=O)O1)c1ccc(Cl)s1 [Rivaroxaban, 5-chloro-N-({(5S)-2-oxo-3-[4-(3-oxomorpholin-4-yl)phenyl]-1,3-oxazolidin-5-yl}methyl)thiophene-2-carboxamide] the “% metabolised” value [1] was 99.98%, the “Observation (metabolism; for Test Product: of the formed rivaroxaban)” value (“Observation” below) [1] was “High” and the “% Parent remaining(rat)” value ([1]; 0 min) was 100%. For the same compound, the “% Parent remaining(rat)” value ([1]; 15 min) was 0.01%, the “% Parent remaining(rat)” value ([1]; 30 min) was 0.02% and the IC50 (CYP2D6) was 13.2 µM. The IC50 (CYP2C19) was 13.2 µM, the “IC50 (μM) of CYP isoforms, 2J2” value (CYP2J2) was “No inhibition” and the IC50 (CYP2C9) was 16.7 µM. For the same compound, the “% metabolised” value [2] was 99.98%, the “Observation” value [2] was “High” and the “% Parent remaining(Mouse)” value ([2]; 0 min) was 100%. For the same compound, the “% Parent remaining(Mouse)” value ([2]; 15 min) was 0.03%, the “% Parent remaining(Mouse)” value ([2]; 30 min) was 0.02% and the “Conversion: unchanged, stable in plasma” value [3] was 88.4%,. The “% Parent remaining(rat)” value ([3]; 0 min) was 100%, the “% Parent remaining(rat)” value ([3]; 30 min) was 82.35% and the “% Parent remaining(rat)” value ([3]; 60 min) was 88.4%. The “Mean (ng) Urine” value ([4]; 120 h) was “BLQ”, the “Mean (ng) Urine” value ([4]; 144 h) was “BLQ” and the concentration at 144 h ([4]; male, Wistar, rat, faeces, iv, 1 mg/kg) was 16.8 ng/g. For the same compound, the IC50 (CYP1A2) was 18.9 µM, the “Conversion: unchanged, stable in plasma” value [5] was 99.99%, and the “% Parent remaining (Human)” value ([5]; 0 min) was 100%. For the same compound, the “% Parent remaining (Human)” value ([5]; 30 min) was 100%, the “% Parent remaining (Human)” value ([5]; 60 min) was 99.68% and the “% metabolised” value [6] was 99.99%. For the same compound, the “Observation” value [6] was “High”, the “% Parent remaining (Human)” value ([6]; 0 min) was 100% and the “% Parent remaining (Human)” value ([6]; 15 min) was 0.01%. For the same compound, the “% Parent remaining (Human)” value ([6]; 30 min) was 0.01%, the “% Parent remaining(Mouse)” value ([7]; 0 min) was 100% and the “% Parent remaining(Mouse)” value ([7]; 30 min) was 100%. For the same compound, the “% Parent remaining(Mouse)” value ([7]; 60 min) was 100%.
